US5929076A, “Cycloalkyl substituted imidazoles” (SmithKline Beecham Corporation, priority 1998, dated 1999)

System: human PGHS-2 protein expression in LPS stimulated human monocytes
Test: Prostoglandin endoperoxide synthase-2 (PGHS-2) assay
Type: cell-based
Conditions: rank order potency similar to that for inhibiting cytokine production
Experimental: The following assay describes a method for determining the inhibitory effects of compounds of Formula (I) on human PGHS-2 protein expression in LPS stimulated human monocytes. Method: Human peripheral blood monocytes were isolated from buffy coats by centrifugation through Ficoll and Percoll gradients. Cells were seeded at 2×10^6 /well in 24 well plates and allowed to adhere for 1 hour in RPMI supplemented with 1% human AB serum, 20 mM L-glutamine, Penicillin-Streptomycin and 10 mM HEPES. Compounds were added at various concentrations and incubated at 37° C. for 10 minutes. LPS was added at 50 ng/well (to induce enzyme expression) and incubated overnight at 37° C. The supernatant was removed and cells washed once in cold PBS. The cells were lysed in 100 μl of cold lysis buffer(50 mM Tris/HCl pH 7.5, 150 mM NaCl, 1% NP40, 0.5% sodium deoxycholate, 0.1% SDS, 300 ug/ml DNAse, 0.1% TRITON X-100, 1 mM PMSF, 1 mM leupeptin, 1 mM pepstatin). The lysate was centrifuged (10,000×g for 10 min. at 4° C.) to remove debris and the soluble fraction was subjected to SDS PAGE. analysis (12% gel). Protein separated on the gel were transferred onto nitrocellulose membrane by electrophoretic means for 2 hours at 60 volts. The membrane was pretreated for one hour in PBS/0.1% Tween 20 with 5% non-fat dry milk. […]

SMILES	inhibition of LPS induced PGHS-2 protein expression
Fc1ccc(-c2nc3n(c2-c2ccncc2)CCS3)cc1 [6-(4-Fluorophenyl)-2,3-dihydro-5-(4-pyridinyl)imidazo[2,1-b]thiazole]	active
C[C@@H]1C[C@H]2[C@@H]3CCC4=CC(=O)C=C[C@]4(C)[C@@]3(F)[C@@H](O)C[C@]2(C)[C@@]1(O)C(=O)CO [Dexamethasone]	active
